Measured values: patent publication US8093231B2, “Sulfonylethyl phosphorodiamidates” (Telik, Inc., priority 2004, dated 2012)
pIC50: −log10 of the molar value.

Tested on: LNCap (prostate carcinoma)
Experiment: Cytotoxicity/growth inhibition assay, LNCap
Assay type: cell-based, human
Settings: LNCap cells, 4 days culture, CellTiter-Glo, 0.1-200 μM tested; read-out: IC50 (LNCap)
Outline: (§1)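 Test compounds in DMSO (0.1–200 μM; final DMSO 0.5%) added to freshly diluted cells (3×10^3 cells/mL MX-1 and DLD-1, 6×10^3 cells/mL LNCap), triplicate wells. Cultured ~three doubling times (3 days MX-1, 4 days DLD-1/LNCap). CellTiter-Glo luminescence, 15 min room temperature; growth expressed as % of DMSO solvent control.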

O=P(OCCS(=O)(=O)c1ccc(Cl)c(Cl)c1)(N(CCCl)CCCl)N(CCCl)CCCl [Compound 112A] and O=P(OCCS(=O)(=O)Cc1ccc(Cl)c(Cl)c1)(N(CCCl)CCCl)N(CCCl)CCCl [Compound 134A] are within 0.2 log units of each other in pIC50: 5.20 for the first, 5.32 for the second.

O=P(OCCS(=O)(=O)c1ccc(-c2ccccc2)cc1)(N(CCCl)CCCl)N(CCCl)CCCl [Compound 113A] and O=P(OCCS(=O)(=O)c1ccccc1)(N(CCCl)CCCl)N(CCCl)CCCl [Compound 117A] are within 0.2 log units of each other in pIC50: 4.74 for the first, 4.79 for the second.

Compared with CC(C)(C)c1ccc(S(=O)(=O)CCOP(=O)(N(CCCl)CCCl)N(CCCl)CCCl)cc1 [Compound 114A], CC(C)(C)c1ccc(CS(=O)(=O)CCOP(=O)(N(CCCl)CCCl)N(CCCl)CCCl)cc1 [Compound 137A] is 0.44 log units lower in pIC50: 5.09 for the first, 4.65 for the second. The first is the more potent here.

COc1ccc(S(=O)(=O)CCOP(=O)(N(CCCl)CCCl)N(CCCl)CCCl)cc1 [Compound 115A] and O=P(OCCS(=O)(=O)c1ccncc1)(N(CCCl)CCCl)N(CCCl)CCCl [Compound 120A] are within 0.2 log units of each other in pIC50: 4.73 for the first, 4.91 for the second.

O=P(OCCS(=O)(=O)c1cccc(C(F)(F)F)c1)(N(CCCl)CCCl)N(CCCl)CCCl [Compound 116A] and O=P(OCCS(=O)(=O)Cc1cccc(C(F)(F)F)c1)(N(CCCl)CCCl)N(CCCl)CCCl [Compound 133A] are within 0.2 log units of each other in pIC50: 5.18 for the first, 5.09 for the second.

Compared with O=C(O)c1ccccc1S(=O)(=O)CCOP(=O)(N(CCCl)CCCl)N(CCCl)CCCl [Compound 118A], O=C(O)c1ncccc1S(=O)(=O)CCOP(=O)(N(CCCl)CCCl)N(CCCl)CCCl [Compound 126A] is higher in pIC50: no more than 3.70 for the first, 3.90 for the second.

First: O=C(O)c1cccc(S(=O)(=O)CCOP(=O)(N(CCCl)CCCl)N(CCCl)CCCl)c1 [Compound 119A]
Second: O=P(OCCS(=O)(=O)c1ccccn1)(N(CCCl)CCCl)N(CCCl)CCCl [Compound 124A]
The pIC50 of the first is 1.09 log units lower: 3.72 for the first, 4.81 for the second.

Compared with O=P(OCCS(=O)(=O)c1nc2ccccc2s1)(N(CCCl)CCCl)N(CCCl)CCCl [Compound 121A], O=P(OCCS(=O)(=O)Cc1ccccc1Cl)(N(CCCl)CCCl)N(CCCl)CCCl [Compound 136A] is 0.40 log units lower in pIC50: 5.07 for the first, 4.67 for the second.

Cn1ccnc1S(=O)(=O)CCOP(=O)(N(CCCl)CCCl)N(CCCl)CCCl [Compound 122A] and Cc1cnc(S(=O)(=O)CCOP(=O)(N(CCCl)CCCl)N(CCCl)CCCl)nc1 [Compound 123A] are within 0.2 log units of each other in pIC50: 4.64 for the first, 4.60 for the second.

Compared with O=P(OCCS(=O)(=O)c1ncnc2[nH]cnc12)(N(CCCl)CCCl)N(CCCl)CCCl [Compound 125A], O=P(OCCS(=O)(=O)c1ncc2nc[nH]c2n1)(N(CCCl)CCCl)N(CCCl)CCCl [Compound 127A] is lower in pIC50: 4.35 for the first, no more than 3.70 for the second. The first is the more potent here.

Cc1cccc(CS(=O)(=O)CCOP(=O)(N(CCCl)CCCl)N(CCCl)CCCl)c1 [Compound 129A] and Cc1ccc(CS(=O)(=O)CCOP(=O)(N(CCCl)CCCl)N(CCCl)CCCl)cc1 [Compound 130A] are within 0.2 log units of each other in pIC50: 4.79 for the first, 4.66 for the second.

Going from O=P(OCCS(=O)(=O)Cc1ccc(Cl)cc1)(N(CCCl)CCCl)N(CCCl)CCCl [Compound 131A] to O=P(OCCS(=O)(=O)Cc1ccc(F)cc1)(N(CCCl)CCCl)N(CCCl)CCCl [Compound 132A], the pIC50 falls from 5.16 to 4.79 (0.37 log units).

In the case of O=P(OCCS(=O)(=O)Cc1ccc(Cl)cc1Cl)(N(CCCl)CCCl)N(CCCl)CCCl [Compound 135A], the pIC50 was 4.72.

Tested on: MX-1 (breast carcinoma)
Experiment: Cytotoxicity/growth inhibition assay, MX-1
Assay type: cell-based, human
Settings: MX-1 cells, 3 days culture, CellTiter-Glo, 0.1-200 μM tested; read-out: IC50 (MX-1)
Outline: as §1

O=P(OCCS(=O)(=O)c1ccc(Cl)c(Cl)c1)(N(CCCl)CCCl)N(CCCl)CCCl [Compound 112A] and O=P(OCCS(=O)(=O)Cc1ccc(Cl)c(Cl)c1)(N(CCCl)CCCl)N(CCCl)CCCl [Compound 134A] are within 0.2 log units of each other in pIC50: 6.00 for the first, 5.82 for the second.

Compared with O=P(OCCS(=O)(=O)c1ccc(-c2ccccc2)cc1)(N(CCCl)CCCl)N(CCCl)CCCl [Compound 113A], O=P(OCCS(=O)(=O)c1ccccc1)(N(CCCl)CCCl)N(CCCl)CCCl [Compound 117A] is 0.43 log units higher in pIC50: 4.96 for the first, 5.39 for the second. The second is the more potent here.

Compared with CC(C)(C)c1ccc(S(=O)(=O)CCOP(=O)(N(CCCl)CCCl)N(CCCl)CCCl)cc1 [Compound 114A], CC(C)(C)c1ccc(CS(=O)(=O)CCOP(=O)(N(CCCl)CCCl)N(CCCl)CCCl)cc1 [Compound 137A] is 0.44 log units higher in pIC50: 5.33 for the first, 5.77 for the second. The second is the more potent here.

COc1ccc(S(=O)(=O)CCOP(=O)(N(CCCl)CCCl)N(CCCl)CCCl)cc1 [Compound 115A] and O=P(OCCS(=O)(=O)c1ccncc1)(N(CCCl)CCCl)N(CCCl)CCCl [Compound 120A] are within 0.2 log units of each other in pIC50: 5.28 for the first, 5.15 for the second.

O=P(OCCS(=O)(=O)c1cccc(C(F)(F)F)c1)(N(CCCl)CCCl)N(CCCl)CCCl [Compound 116A] and O=P(OCCS(=O)(=O)Cc1cccc(C(F)(F)F)c1)(N(CCCl)CCCl)N(CCCl)CCCl [Compound 133A] are within 0.2 log units of each other in pIC50: 5.51 for the first, 5.57 for the second.

Compared with O=C(O)c1ccccc1S(=O)(=O)CCOP(=O)(N(CCCl)CCCl)N(CCCl)CCCl [Compound 118A], O=C(O)c1ncccc1S(=O)(=O)CCOP(=O)(N(CCCl)CCCl)N(CCCl)CCCl [Compound 126A] is 0.26 log units higher in pIC50: 4.43 for the first, 4.69 for the second. The second is the more potent here.

Going from O=C(O)c1cccc(S(=O)(=O)CCOP(=O)(N(CCCl)CCCl)N(CCCl)CCCl)c1 [Compound 119A] to O=P(OCCS(=O)(=O)c1ccccn1)(N(CCCl)CCCl)N(CCCl)CCCl [Compound 124A], the pIC50 rises from 4.49 to 5.14 (0.65 log units). The second is the more potent here.

O=P(OCCS(=O)(=O)c1nc2ccccc2s1)(N(CCCl)CCCl)N(CCCl)CCCl [Compound 121A] and O=P(OCCS(=O)(=O)Cc1ccccc1Cl)(N(CCCl)CCCl)N(CCCl)CCCl [Compound 136A] are within 0.2 log units of each other in pIC50: 5.59 for the first, 5.55 for the second.

First: Cn1ccnc1S(=O)(=O)CCOP(=O)(N(CCCl)CCCl)N(CCCl)CCCl [Compound 122A]
Second: Cc1cnc(S(=O)(=O)CCOP(=O)(N(CCCl)CCCl)N(CCCl)CCCl)nc1 [Compound 123A]
The pIC50 of the first is 0.32 log units higher: 5.37 for the first, 5.05 for the second. The first is the more potent here.

O=P(OCCS(=O)(=O)c1ncnc2[nH]cnc12)(N(CCCl)CCCl)N(CCCl)CCCl [Compound 125A] and O=P(OCCS(=O)(=O)c1ncc2nc[nH]c2n1)(N(CCCl)CCCl)N(CCCl)CCCl [Compound 127A] are within 0.2 log units of each other in pIC50: 4.65 for the first, 4.82 for the second.

Cc1cccc(CS(=O)(=O)CCOP(=O)(N(CCCl)CCCl)N(CCCl)CCCl)c1 [Compound 129A] and Cc1ccc(CS(=O)(=O)CCOP(=O)(N(CCCl)CCCl)N(CCCl)CCCl)cc1 [Compound 130A] are within 0.2 log units of each other in pIC50: 5.15 for the first, 5.19 for the second.

O=P(OCCS(=O)(=O)Cc1ccc(Cl)cc1)(N(CCCl)CCCl)N(CCCl)CCCl [Compound 131A] and O=P(OCCS(=O)(=O)Cc1ccc(F)cc1)(N(CCCl)CCCl)N(CCCl)CCCl [Compound 132A] are within 0.2 log units of each other in pIC50: 5.28 for the first, 5.21 for the second.

Compound O=P(OCCS(=O)(=O)Cc1ccc(Cl)cc1Cl)(N(CCCl)CCCl)N(CCCl)CCCl [Compound 135A] has a pIC50 of 5.46.

Tested on: DLD-1 (colorectal adenocarcinoma)
Experiment: Cytotoxicity/growth inhibition assay, DLD-1
Assay type: cell-based, human
Settings: DLD-1 cells, 4 days culture, CellTiter-Glo, 0.1-200 μM tested; read-out: IC50 (DLD-1)
Outline: as §1

O=P(OCCS(=O)(=O)c1ccc(Cl)c(Cl)c1)(N(CCCl)CCCl)N(CCCl)CCCl [Compound 112A] and O=P(OCCS(=O)(=O)Cc1ccc(Cl)c(Cl)c1)(N(CCCl)CCCl)N(CCCl)CCCl [Compound 134A] are within 0.2 log units of each other in pIC50: 6.10 for the first, 5.92 for the second.

Compared with O=P(OCCS(=O)(=O)c1ccc(-c2ccccc2)cc1)(N(CCCl)CCCl)N(CCCl)CCCl [Compound 113A], O=P(OCCS(=O)(=O)c1ccccc1)(N(CCCl)CCCl)N(CCCl)CCCl [Compound 117A] is 0.26 log units lower in pIC50: 5.66 for the first, 5.40 for the second.

Going from CC(C)(C)c1ccc(S(=O)(=O)CCOP(=O)(N(CCCl)CCCl)N(CCCl)CCCl)cc1 [Compound 114A] to CC(C)(C)c1ccc(CS(=O)(=O)CCOP(=O)(N(CCCl)CCCl)N(CCCl)CCCl)cc1 [Compound 137A], the pIC50 rises from 5.72 to 6.10 (0.38 log units). The second is the more potent here.

COc1ccc(S(=O)(=O)CCOP(=O)(N(CCCl)CCCl)N(CCCl)CCCl)cc1 [Compound 115A] and O=P(OCCS(=O)(=O)c1ccncc1)(N(CCCl)CCCl)N(CCCl)CCCl [Compound 120A] are within 0.2 log units of each other in pIC50: 5.39 for the first, 5.44 for the second.

O=P(OCCS(=O)(=O)c1cccc(C(F)(F)F)c1)(N(CCCl)CCCl)N(CCCl)CCCl [Compound 116A] and O=P(OCCS(=O)(=O)Cc1cccc(C(F)(F)F)c1)(N(CCCl)CCCl)N(CCCl)CCCl [Compound 133A] are within 0.2 log units of each other in pIC50: 5.66 for the first, 5.59 for the second.

Going from O=C(O)c1ccccc1S(=O)(=O)CCOP(=O)(N(CCCl)CCCl)N(CCCl)CCCl [Compound 118A] to O=C(O)c1ncccc1S(=O)(=O)CCOP(=O)(N(CCCl)CCCl)N(CCCl)CCCl [Compound 126A], the pIC50 rises from 4.96 to 5.17 (0.21 log units). The second is the more potent here.

Going from O=C(O)c1cccc(S(=O)(=O)CCOP(=O)(N(CCCl)CCCl)N(CCCl)CCCl)c1 [Compound 119A] to O=P(OCCS(=O)(=O)c1ccccn1)(N(CCCl)CCCl)N(CCCl)CCCl [Compound 124A], the pIC50 rises from 5.01 to 5.22 (0.21 log units). The second is the more potent here.

O=P(OCCS(=O)(=O)c1nc2ccccc2s1)(N(CCCl)CCCl)N(CCCl)CCCl [Compound 121A] and O=P(OCCS(=O)(=O)Cc1ccccc1Cl)(N(CCCl)CCCl)N(CCCl)CCCl [Compound 136A] are within 0.2 log units of each other in pIC50: 5.92 for the first, 5.77 for the second.

First: Cn1ccnc1S(=O)(=O)CCOP(=O)(N(CCCl)CCCl)N(CCCl)CCCl [Compound 122A]
Second: Cc1cnc(S(=O)(=O)CCOP(=O)(N(CCCl)CCCl)N(CCCl)CCCl)nc1 [Compound 123A]
The pIC50 of the first is 0.28 log units higher: 5.51 for the first, 5.23 for the second. The first is the more potent here.

O=P(OCCS(=O)(=O)c1ncnc2[nH]cnc12)(N(CCCl)CCCl)N(CCCl)CCCl [Compound 125A] and O=P(OCCS(=O)(=O)c1ncc2nc[nH]c2n1)(N(CCCl)CCCl)N(CCCl)CCCl [Compound 127A] are within 0.2 log units of each other in pIC50: 5.11 for the first, 5.24 for the second.

Cc1cccc(CS(=O)(=O)CCOP(=O)(N(CCCl)CCCl)N(CCCl)CCCl)c1 [Compound 129A] and Cc1ccc(CS(=O)(=O)CCOP(=O)(N(CCCl)CCCl)N(CCCl)CCCl)cc1 [Compound 130A] are within 0.2 log units of each other in pIC50: 5.27 for the first, 5.29 for the second.

O=P(OCCS(=O)(=O)Cc1ccc(Cl)cc1)(N(CCCl)CCCl)N(CCCl)CCCl [Compound 131A] and O=P(OCCS(=O)(=O)Cc1ccc(F)cc1)(N(CCCl)CCCl)N(CCCl)CCCl [Compound 132A] are within 0.2 log units of each other in pIC50: 5.44 for the first, 5.30 for the second.

O=P(OCCS(=O)(=O)Cc1ccc(Cl)cc1Cl)(N(CCCl)CCCl)N(CCCl)CCCl [Compound 135A] gave a pIC50 of 6.22.
